Measured values from patent publication US8278037B2, “N-acetylgalactosamine transferases and nucleic acids encoding the same” (National Institute of Advanced Industrial Science and …, priority 2002, dated 2012).

Assays:
Type in all cases: biochemical
[1] = biological target: T1, NGalNAc-T1 (Homo sapiens, UniProt Q76KP1); assay: Search for acceptor substrates, each acceptor by itself; settings: acceptor 10 nmol/20 μl by itself
T1 sequence (Q76KP1 62-1039): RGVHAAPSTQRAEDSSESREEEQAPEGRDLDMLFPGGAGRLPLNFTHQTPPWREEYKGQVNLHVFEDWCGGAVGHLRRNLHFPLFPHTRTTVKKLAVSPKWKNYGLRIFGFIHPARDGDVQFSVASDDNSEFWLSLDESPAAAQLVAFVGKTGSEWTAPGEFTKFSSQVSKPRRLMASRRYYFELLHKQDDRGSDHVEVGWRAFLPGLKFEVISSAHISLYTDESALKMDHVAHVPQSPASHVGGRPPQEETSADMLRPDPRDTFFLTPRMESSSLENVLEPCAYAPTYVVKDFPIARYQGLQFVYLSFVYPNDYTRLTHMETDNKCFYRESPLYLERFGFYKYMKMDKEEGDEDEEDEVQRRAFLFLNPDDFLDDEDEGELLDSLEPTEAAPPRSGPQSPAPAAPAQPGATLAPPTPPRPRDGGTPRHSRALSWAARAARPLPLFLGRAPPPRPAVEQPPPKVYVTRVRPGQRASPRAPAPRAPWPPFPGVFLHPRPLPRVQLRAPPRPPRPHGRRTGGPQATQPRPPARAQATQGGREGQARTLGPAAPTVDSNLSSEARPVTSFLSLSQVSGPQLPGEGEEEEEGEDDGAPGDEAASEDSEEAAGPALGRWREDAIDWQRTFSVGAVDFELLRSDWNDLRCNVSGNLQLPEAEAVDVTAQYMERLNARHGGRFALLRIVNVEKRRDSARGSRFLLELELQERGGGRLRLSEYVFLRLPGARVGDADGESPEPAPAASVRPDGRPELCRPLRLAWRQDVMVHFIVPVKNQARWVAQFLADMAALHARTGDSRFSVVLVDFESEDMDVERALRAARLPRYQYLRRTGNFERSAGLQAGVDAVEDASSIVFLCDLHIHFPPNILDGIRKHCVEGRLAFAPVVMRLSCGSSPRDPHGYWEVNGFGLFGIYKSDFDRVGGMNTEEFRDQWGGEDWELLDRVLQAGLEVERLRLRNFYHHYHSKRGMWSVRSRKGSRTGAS
Method: (§1) The acceptor substrates were prepared so that each of Gal-α-pNp, Gal-β-oNp, GalNAc-α-Bz, GalNAc-β-pNp, GlcNAc-α-pNp, GlcNAc-β-pNp, Glc-α-pNp, Glc-β-pNp, GlcA-β-pNp, Fuc-α-pNp, Man-α-pNp (thereinbefore, CALBIOCHEM Co.), Xyl-α-pNp, Xyl-β-pNp (thereinbefore, SIGMA Co.) was included in 2.5 nmol/20 μl. Further, the solutions of various donor substrates (UDP-GalNAc, UDP-GlcNAc, UDP-Gal, GDP-Man, UDP-GlcA, UDP-Xyl and GDP-Fuc, thereinbefore, SIGMA Co.) are shown in Table 3.
(§2) All of reaction times were 16 hours. After reaction, non-reactive acceptor substrates with radioactivity were removed with SepPack C18 column (Waters CO.), and radioactivity from donor substrates integrated into acceptor substrates was determined with a liquid scintillation counter.
(§3) Further, in order to investigate acceptors, reactions were performed using each acceptor (10 nmol/20 μl) by itself. As a result, significant radioactivity was detected in the case of GlcNAc-β-pNp (NGalNAc-T1: 256.26 dpm, NGalNAc-T2: 1221.22 dpm). Based on the above results, it was explained that both of NGalNAc-T1 and NGalNAc-T2 are glycosyl transferases capable of transferring GalNAc to GlcNAc-T.

[2] = biological target: T2, NGalNAc-T2 (Homo sapiens, UniProt Q6L9W6, K411R); assay: as above; settings: acceptor 10 nmol/20 μl by itself
Method: as §1, §2, §3

[3] = biological target: T1, NGalNAc-T1; assay: Requirements of divalent cations in the activity
From the text: (§4) In addition, the value (263.21 dpm) of MES (pH 6.75) was adopted as a blank value in the case of a non-enzyme. Further, when pH of HEPES buffer was 7.4 for NGalNAc-T1 and 6.75 for NGalNAc-T2, the highest value was shown. […] Hereinafter, MES (pH 6.5) was used in each of experiments.
(§5) Generally, glycosyl transferases require frequently divalent cations. The activity of each enzyme was studied by adding various divalent cations. Consequently, the high values were represented when Mn^2+ in NGalNAc-T1, and Mg^2+, Mn^2+ and Co^2+ in NGalNAc-T2 were added (see Table 5). […] From the above results, it was explained that both enzymes require divalent cations.

[4] = biological target: T2, NGalNAc-T2; assay: Requirements of divalent cations in the activity
From the text: as §4, §5

[5] = biological target: T1, NGalNAc-T1; assay: Assay for acceptor substrates of glycosyl-transferase activities (GalNAc-T assay, HPLC); settings: Table 6, O-glycan type acceptors 500 μM; GlcNAcβ-Bz = 100
Method: (§6) For the reaction of GalNAc-T assay, 50 mM MES buffer (pH 6.5) containing 0.1% triton X-100, 1 mM UDP-GalNAc, 10 mM MnCl2 and 500 μM each acceptor substrate was used. A 10 μl of enzyme solution for 20 μl of each reaction mixture were added and incubated at 37° C. for various periods. After the incubation the mixture was filtrated with Ultrafree-MC column (Millipore, Bedford, Mass.), and 10 μl aliquot was subjected to reversed-phase high performance liquid chromatography (HPLC) on an ODS-80Ts QA column (4.6×250 mm; Tosoh, Tokyo, Japan). A 0.1% TFA/H2O with 12% acetonitrile was used as a running solution. An ultraviolet spectrophotometer (absorbance at 210 nm), SPD-10AVP (Shimazu, Kyoto, Japan) was used for detection of the peaks. When the pyridyl amino-labeled oligosaccharides were utilized as acceptor substrates, 50 nM substrates were added into the reaction mixtures. For the analyses of the products derived from pyridyl amino labeled oligosaccharides, 100 mM acetic acid/triethylamine (pH4.0) was used as a running solution and the products were eluted with a 30-70% gradient of 1% 1-butanol in running solution at a flow rate of 1.0 ml/min at 55° C.
(§7) To investigate the specificity for acceptor substrates, N- and O-glycans containing GlcNAc on their non-reducing termini were utilized.

[6] = biological target: T2, NGalNAc-T2; assay: as above; settings: Table 6, O-glycan type acceptors 500 μM; GlcNAcβ-Bz = 100
Method: as §6, §7

[7] = biological target: T1, NGalNAc-T1; assay: Search for donor substrates, radioactive glycosyltransferase assay; settings: mixed mono-saccharide acceptor substrates, 16 hours
Method: (§8) 15 μg of pFLAG-NGalNAc-T1 or pFLAG-NGalNAc-T2 was induced into 2×10^6 of COS-1, cells which were cultured overnight in DMEM (Dulbecco's modified Eagle's medium) including 10% FCS (fetal calf serum), using Lipofectamine 2000 (Invitrogen Co.) as a protocol provided by the same company. A supernatant of 48-72 hours was collected. The supernatant was mixed with NaN3 (0.05%), NaCl (150 mM), CaCl2 (2 mM) and an anti-M1 resin (Sigma Co.) (50 μl), and the mixture was stirred overnight at 4° C. The solution of reaction mixture was centrifuged (3000 rpm, 5 min, 4° C.) to collect a pellet. The pellet was combined with 900 μl of 2 mM CaCl2/TBS and re-centrifuged (2000 rpm, 5 min, 4° C.), after which the pellet was suspended in 200 μl of 1 mM CaCl2/TBS to give a sample for assaying activity (NGalNAc-T1 or NGalNAc-T2 enzyme solution).
(§9) A search for a donor substrate of the enzyme of the present invention was performed on various mono-saccharide acceptor substrates, using […] of enzyme solution and various acceptor substrates.
as §1, §2

[8] = biological target: T2, NGalNAc-T2; assay: as above; settings: mixed mono-saccharide acceptor substrates, 16 hours
Method: as §8, §9, §1, §2

[9] = divalent cation etc. added, MES (pH 6.5)
[10] = divalent cation etc. added, MES (pH 6.5), blank 263.21 subtracted

For `CC(=O)N[C@H]1[C@H](Oc2ccc([N+](=O)[O-])cc2)O[C@H](CO)[C@@H](O)[C@@H]1O` [GlcNAc-β-pNp], which radioactivity detected [1] is on record?
Its radioactivity detected is 256.26 dpm.

What about the radioactivity detected [2] of the same compound?
The radioactivity detected was 1221.22 dpm.

How did the “Incorporation of radioactivity (A)” value [3, 9] turn out when `O=C(O)CN(CCN(CC(=O)O)CC(=O)O)CC(=O)O` [EDTA] was run?
The value was 242.38 dpm.

And the “(A) − (B)” value [3, 10]?
Its value is −20.83 dpm.

And the “Incorporation of radioactivity (A)” value [4, 9]?
The value was 235.28 dpm.

What about the “(A) − (B)” value [4, 10] of the same compound?
Its value is −27.93 dpm.

Which results are given for `CC(=O)N[C@H]1[C@H](OC[C@H]2O[C@H](Oc3ccc([N+](=O)[O-])cc3)[C@H](NC(C)=O)[C@@H](O[C@@H]3O[C@H](CO)[C@H](O)[C@H](O)[C@H]3O)[C@H]2O)O[C@H](CO)[C@@H](O)[C@@H]1O` [GlcNAcβ1-6(Galβ1-3)GalNAcα-pNp]?
Relative activity (%) [5]: 15.2%; Relative activity (%) [6]: 11.4%

`[Cl-].[Cl-].[Mg+2]` [MgCl2] was tested. Which “Incorporation of radioactivity (A)” value [3, 9] did it give?
Its value is 256.36 dpm.

What about the “(A) − (B)” value [3, 10] of the same compound?
Its value is −6.85 dpm.

What about the “enzyme activity on adding divalent cation, in words” value (shortened to “enzyme activity”) [4] of the same compound?
Its value is “high values”.

And the “Incorporation of radioactivity (A)” value [4, 9]?
Its value is 3124.16 dpm.

What about the “(A) − (B)” value [4, 10] of the same compound?
The value was 2860.95 dpm.

Which results are given for `[Cl-].[Cl-].[Co+2]` [CoCl2]?
(A) − (B) ([3]; pH 6.5): −22.30 dpm; Incorporation of radioactivity (A) ([3]; pH 6.5): 240.91 dpm; enzyme activity on adding divalent cation, in words [4]: high values; (A) − (B) ([4]; pH 6.5): 867.42 dpm; Incorporation of radioactivity (A) ([4]; pH 6.5): 1130.63 dpm

`[Cl][Mn][Cl]` [MnCl2] was tested. Which “enzyme activity” value [3] did it give?
Its value is “high values”.

What about the “Incorporation of radioactivity (A)” value [3, 9] of the same compound?
The value was 519.47 dpm.

What about the “(A) − (B)” value [3, 10] of the same compound?
Its value is 256.26 dpm.

And the “enzyme activity” value [4]?
The value was “high values”.

What about the “Incorporation of radioactivity (A)” value [4, 9] of the same compound?
The value was 1484.43 dpm.

And the “(A) − (B)” value [4, 10]?
Its value is 1221.22 dpm.

How did the “Relative activity (%)” value [5] turn out when `CC(=O)NC1C(OC2C(O)C(CO)OC(Oc3ccc([N+](=O)[O-])cc3)C2NC(C)=O)OC(CO)C(O)C1O` (centres unmarked) [GlcNAcβ1-3GalNAcα-pNp] was run?
Its value is 20.0%.

What about the “Relative activity (%)” value [6] of the same compound?
The value was 32.3%.

With `CC(=O)N[C@H]1[C@@H](OP(=O)(O)OP(=O)(O)OC[C@H]2O[C@@H](n3ccc(=O)[nH]c3=O)[C@H](O)[C@@H]2O)O[C@H](CO)[C@H](O)[C@@H]1O` [UDP-GalNAc, UDP-N-acetyl-D-galactosamine] as the compound, how does the “activity with donor substrate (radioactivity integrated into acceptor substrates)” value [7] read?
The value was “highest activity”.

And the “activity with donor substrate (radioactivity integrated into acceptor substrates)” value [8]?
Its value is “highest activity”.

For `[Cl][Cu][Cl]` [CuCl2], which “Incorporation of radioactivity (A)” value [3, 9] is on record?
Its value is 278.77 dpm.

And the “(A) − (B)” value [3, 10]?
Its value is 15.56 dpm.

And the “Incorporation of radioactivity (A)” value [4, 9]?
The value was 218.35 dpm.

What about the “(A) − (B)” value [4, 10] of the same compound?
Its value is −44.86 dpm.

Which results are given for `O=C(O)[C@H]1O[C@H](OP(=O)(O)OP(=O)(O)OC[C@H]2O[C@@H](n3ccc(=O)[nH]c3=O)[C@H](O)[C@@H]2O)[C@H](O)[C@@H](O)[C@@H]1O` [UDP-GlcA]?
activity with donor substrate (radioactivity integrated into acceptor substrates) [7]: little background; activity with donor substrate (radioactivity integrated into acceptor substrates) [8]: little background

`O=S(=O)([O-])[O-].[Cd+2]` [CdSO4] was tested. Which “Incorporation of radioactivity (A)” value [3, 9] did it give?
The value was 203.39 dpm.

What about the “(A) − (B)” value [3, 10] of the same compound?
The value was −59.82 dpm.

And the “Incorporation of radioactivity (A)” value [4, 9]?
The value was 217.92 dpm.

What about the “(A) − (B)” value [4, 10] of the same compound?
Its value is −45.29 dpm.

`CC(=O)N[C@H]1[C@@H](Oc2ccc([N+](=O)[O-])cc2)O[C@H](CO[C@@H]2O[C@H](CO)[C@@H](O)[C@H](O)[C@H]2NC(C)=O)[C@H](O)[C@@H]1O` [GlcNAcβ1-6GalNAcα-pNp] was tested. Which “Relative activity (%)” value [5] did it give?
Its value is 190.7%.

What about the “Relative activity (%)” value [6] of the same compound?
Its value is 220.4%.

Which “Incorporation of radioactivity (A)” value [3, 9] does the source give for `[Cl-].[Cl-].[Zn+2]` [ZnCl2] here?
Its value is 210.29 dpm.

And the “(A) − (B)” value [3, 10]?
The value was −52.92 dpm.

And the “Incorporation of radioactivity (A)” value [4, 9]?
The value was 187.59 dpm.

And the “(A) − (B)” value [4, 10]?
The value was −75.62 dpm.

For `[Ca+2].[Cl-].[Cl-]` [CaCl2], which “Incorporation of radioactivity (A)” value [3, 9] is on record?
Its value is 230.78 dpm.

And the “(A) − (B)” value [3, 10]?
Its value is −32.43 dpm.

And the “Incorporation of radioactivity (A)” value [4, 9]?
The value was 217.83 dpm.

What about the “(A) − (B)” value [4, 10] of the same compound?
The value was −45.38 dpm.

Which “Relative activity (%)” value [5] does the source give for `CC(=O)N[C@H]1[C@H](OCc2ccccc2)O[C@H](CO)[C@@H](O)[C@@H]1O` [GlcNAcβ-Bz] here?
Its value is 100%.

What about the “Relative activity (%)” value [6] of the same compound?
The value was 100%.
